Where two headings read alike, the source gives them in different places.
Experiments:
[1] = see Bioorg. and Med. Chem. Lett., 8, 3107-3110 (1998); cited from earlier work
[2] = physchem; details: 100 mM phosphate buffer in a 96 well plate, pH 8
Experimental: A 96 well plate was prepared with each well containing 100 microliters of 100 mM phosphate buffer at pH values ranging from 8.0 to 2.5 in 0.5 unit increments. […] A set of 10× diluted wells were also prepared to eliminate artifacts due to self-quenching of the fluorophore at high concentrations. The 10× dilutions were prepared by diluting the 1 mg/mL solution to 0.1 mg/mL in DMSO, and then adding 10 microliters of this solution to 100 microliters of 100 mM phosphate buffer in each of the wells.
The absorption spectra from 250 nanometers (nm) to 500 nm were recorded using a SPECTRAMAX M5 fluorescence plate reader (available from Molecular Devices of Sunnyvale Calif.) for each pH value.
Emission spectra at wavelengths from 410 nm to 700 nm were also recorded on the SPECTRAMAX M5 fluorescence plate reader at an excitation wavelength of 400 nm over the range of pH values in the plate. […]
The absorption at 400 nm and emission at 450 nm over the range of pH values were recorded on a SPECTRAMAX M5 fluorescence plate reader. […]
The absorption spectra from 300 nanometers (nm) to 700 nm were recorded for the 10× diluted wells using a SPECTRAMAX M5 fluorescence plate reader (available from Molecular Devices of Sunnyvale Calif.) for each pH value. […]

[3] = test system: Escherichia coli (ATCC 29425); test: Detection of microbial colonies on bacterial culture plates by fluorescence imaging; type: cell-based; details: for time after which colonies were apparent in the images: Plates 8-1 and C-1, 200 nM, with MX-180 particles, about 20° C. to 27° C.; for mean fluorescence intensity of colonies over time: Plates 8-1 and C-1, averaged across 6 colonies, 30 seconds fluorescent illumination
Experimental: A mixture of 50 grams of xanthan gum powder and 50 grams of locust bean gum powder was placed in a 500 mL bottle and shaken manually for about 5 minutes. A cover film was prepared by sprinkling the mixture onto the adhesive of a pressure-sensitive adhesive coated sheet that is commercially available under the trade designation 9795R ADVANCED SEALING TAPE from 3M Company in St. Paul Minn. The adhesive coated sheet was tilted to remove excess powder. The coating weight of the gums was approximately 85 milligrams per 24 square inches (i.e, 0.55 milligrams per square centimeter).
A growth medium mixture was prepared by mixing 22.8 parts of pancreatic digest of casein, 15.9 parts of yeast extract, 45.5 parts of sodium pyruvate, 4.1 parts of dextrose, 9.0 parts of dibasic potassium phosphate, and 2.8 parts of monobasic potassium phosphate. A growth medium broth was prepared by mixing 500 mL of deionized water with 14.78 grams of the growth medium mixture in a beaker using an air motor mixer followed by adding 5 grams of locust bean gum in small increments, and mixing for several minutes. The beaker was covered with foil and the mixture was heated to 80° C., mixed for about 6 minutes, and then allowed to cool for about ten minutes while mixing without heat. The broth was then poured into a sterilized beaker, covered with a plastic bag and refrigerated. The cooled broth was stirred carefully with a spatula to avoid forming air bubbles and then knife coated onto a 24.4 cm wide sheet of 4 mil thick polyethylene terephthalate film that is commercially available under the trade designation MELINEX 453 from DuPont Teijin Films in Hopewell Va. The broth coated film was dried in an oven set at a temperature of 210° C. for about 10 minutes. The dried coating weight was about 1 mg per square centimeter.
A 20.3 centimeter (cm) wide sheet of 4 mil (a mil is equal to 0.001 inches) thick closed cell polystyrene foam (commercially available from American Fuji Seal, Inc. of Bardstown, Ky.) was laminated to a pressure-sensitive adhesive transfer tape on a release liner. The specific transfer tape used has an acrylic pressure-sensitive adhesive and is commercially available from 3M Company (Saint Paul, Minn.) under the trade designation 3M […] ADHESIVE 927. Circular discs measuring 5 cm in diameter were die-cut and removed from the laminate, forming circular openings centered within a 7.6 cm square from one end of 7.6 cm by 10.16 cm rectangle. The liner was removed and the adhesive-coated surface of the polystyrene foam was adhered to the broth coated film to provide a base member having a broth-coated self-supporting substrate and a hydrophobic spacer element (i.e., “foam dam”) adhered to the broth-coated surface of the supporting substrate. Rectangular plates measuring 7.6 cm by 10.16 cm were cut from the laminate, with the circular openings centered within a 7.6 cm square on one end of the 10.16 cm length. The cover film was attached to the base member with the powder coated side facing the foam dam with a double sided pressure-sensitive adhesive tape to form a culture plate.
For Example 8, an indicator solution was prepared by dissolving FTU-gal from Example 6 in DMSO at a 50 mM (millimolar) concentration (Indicator 1). The solution was further diluted 20-fold to provide a 2.5 mM solution (Indicator 2).
For Comparative Example C1, indicator solutions were prepared by dissolving TU-gal in DMSO at a 20 mM concentration (Indicator 3). […]

[4] = test system: β-D-galactosidase; test: Emission of fluorogenic galactoside at pH 2.5 to 8.0 in the presence and absence of β-D-galactosidase; type: biochemical; details: FIG. 6; emission 495 nm, excitation 430 nm, pH 5 to 7, with β-D-galactosidase; about two-thirds of sample fluorinated
Experimental: Absorbance and emission spectra for the first fraction of FTU-gal was recorded at pH 2.5 to 8.0 in the presence and absence of β-D-galactosidase, and then compared to spectra of TU-gal (prepared according to U.S. Pat. No. 6,566,508 (Bentsen et al.) under the same conditions.
About two-thirds of the sample tested was fluorinated.

| Compound | pKa [2] | time after which colonies were apparent in the images [3] [h] | mean fluorescence intensity of colonies over time [3] | other results |
| --- | --- | --- | --- | --- |
| Cc1cc(=O)oc2c(F)c(O)c(F)cc12 [6,8-difluoro-4-methyl-7-hydroxycoumarin] | – | – | – | pKa [1]: 4.2 |
| CCOC(=O)c1cc2cc(F)c(O)cc2oc1=O [6-FEHC, 6-fluoro-3-ethylcarboxylate-7-hydroxycoumarin] | ~4.5 | – | – | – |
| CCOC(=O)c1cc2ccc(O)cc2oc1=O [EHC, 3-ethylcarboxylate-7-hydroxycoumarin, reference compound] | ~6.5 | – | – | – |
| O=c1oc2cc(O[C@@H]3O[C@H](CO)[C@H](O)[C@H](O)[C@H]3O)ccc2cc1-c1cccs1 [TU-gal, 3-thienylumbelliferone-pyanogalactoside, reference compound] | – | 14 | tended to plateau over time | – |
| fluorinated 3-thienylumbelliferone-pyranogalactoside [FTU-gal] | – | 14 | continued to increase | signal to noise (background) ratio over time ([3]; Plates 8-1 and C-1, six colonies and six background spots): always higher; enhancement in intensity versus TU that is not fluorinated [4]: more than 2 fold |

From patent publication US9896711B2, “Fluorogenic or fluorophoric compounds and uses thereof” (3M INNOVATIVE PROPERTIES COMPANY, priority 2011, dated 2018)
